Active and inactive are the calls of the source. The calls are words filed in the database; no cut-off is given here.
Tests used:
[1] = molecular target: T1, Epidermal growth factor receptor (Homo sapiens, UniProt P00533); test: Inhibition of recombinant human C-terminal His/N-terminal GST-tagged EGFR (668 to 1210 residues) expressed in baculovirus infected Sf9 cells at 10 uM using biotin-labeled poly[Glu:Tyr] (4:1) as substrate after 30 mins by Kinase-Glo plus luminescence assay relative to control
T1 sequence (P00533 whole entry, the tested form may be a part): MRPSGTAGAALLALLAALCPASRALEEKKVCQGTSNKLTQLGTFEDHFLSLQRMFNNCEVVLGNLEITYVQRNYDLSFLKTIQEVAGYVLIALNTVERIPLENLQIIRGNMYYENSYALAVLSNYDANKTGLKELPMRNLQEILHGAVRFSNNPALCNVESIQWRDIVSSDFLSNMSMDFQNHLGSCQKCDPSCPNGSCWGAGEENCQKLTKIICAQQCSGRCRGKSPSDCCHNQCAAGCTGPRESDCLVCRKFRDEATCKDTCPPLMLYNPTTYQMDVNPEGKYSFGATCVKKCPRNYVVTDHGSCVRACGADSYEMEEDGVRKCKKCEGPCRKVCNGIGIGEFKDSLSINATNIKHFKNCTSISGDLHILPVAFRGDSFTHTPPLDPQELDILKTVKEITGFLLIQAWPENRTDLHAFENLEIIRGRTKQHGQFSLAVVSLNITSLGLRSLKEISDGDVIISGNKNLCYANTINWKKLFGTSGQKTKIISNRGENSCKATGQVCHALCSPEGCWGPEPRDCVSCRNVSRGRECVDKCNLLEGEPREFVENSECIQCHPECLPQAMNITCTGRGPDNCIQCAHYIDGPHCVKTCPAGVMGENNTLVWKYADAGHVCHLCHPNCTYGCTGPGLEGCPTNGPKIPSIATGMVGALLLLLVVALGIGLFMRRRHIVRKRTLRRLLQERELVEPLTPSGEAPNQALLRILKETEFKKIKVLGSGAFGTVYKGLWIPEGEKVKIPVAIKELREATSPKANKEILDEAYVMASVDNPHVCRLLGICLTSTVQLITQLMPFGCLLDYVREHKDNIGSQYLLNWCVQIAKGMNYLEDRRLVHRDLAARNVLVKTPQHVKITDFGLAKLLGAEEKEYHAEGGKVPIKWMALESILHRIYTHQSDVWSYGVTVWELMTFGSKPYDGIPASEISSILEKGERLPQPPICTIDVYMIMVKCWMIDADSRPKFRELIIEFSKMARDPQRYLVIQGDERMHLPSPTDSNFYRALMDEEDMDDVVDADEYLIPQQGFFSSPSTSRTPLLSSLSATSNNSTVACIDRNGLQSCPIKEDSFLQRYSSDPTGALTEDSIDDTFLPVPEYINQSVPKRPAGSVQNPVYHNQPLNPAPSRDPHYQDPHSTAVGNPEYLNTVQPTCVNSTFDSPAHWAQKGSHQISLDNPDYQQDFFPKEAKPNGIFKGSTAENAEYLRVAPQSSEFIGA

[2] = molecular target: Receptor tyrosine-protein kinase erbB-2 (Homo sapiens) (UniProt P04626); test: Inhibition of recombinant human N-terminal GST-tagged HER2 (679 to 1255 residues) expressed in baculovirus infected Sf9 cells at 10 uM using poly[Glu:Tyr] (4:1) as substrate after 40 mins by Kinase-Glo plus luminescence assay relative to control
Receptor tyrosine-protein kinase erbB-2 (Homo sapiens), sequence (P04626 whole entry, the tested form may be a part): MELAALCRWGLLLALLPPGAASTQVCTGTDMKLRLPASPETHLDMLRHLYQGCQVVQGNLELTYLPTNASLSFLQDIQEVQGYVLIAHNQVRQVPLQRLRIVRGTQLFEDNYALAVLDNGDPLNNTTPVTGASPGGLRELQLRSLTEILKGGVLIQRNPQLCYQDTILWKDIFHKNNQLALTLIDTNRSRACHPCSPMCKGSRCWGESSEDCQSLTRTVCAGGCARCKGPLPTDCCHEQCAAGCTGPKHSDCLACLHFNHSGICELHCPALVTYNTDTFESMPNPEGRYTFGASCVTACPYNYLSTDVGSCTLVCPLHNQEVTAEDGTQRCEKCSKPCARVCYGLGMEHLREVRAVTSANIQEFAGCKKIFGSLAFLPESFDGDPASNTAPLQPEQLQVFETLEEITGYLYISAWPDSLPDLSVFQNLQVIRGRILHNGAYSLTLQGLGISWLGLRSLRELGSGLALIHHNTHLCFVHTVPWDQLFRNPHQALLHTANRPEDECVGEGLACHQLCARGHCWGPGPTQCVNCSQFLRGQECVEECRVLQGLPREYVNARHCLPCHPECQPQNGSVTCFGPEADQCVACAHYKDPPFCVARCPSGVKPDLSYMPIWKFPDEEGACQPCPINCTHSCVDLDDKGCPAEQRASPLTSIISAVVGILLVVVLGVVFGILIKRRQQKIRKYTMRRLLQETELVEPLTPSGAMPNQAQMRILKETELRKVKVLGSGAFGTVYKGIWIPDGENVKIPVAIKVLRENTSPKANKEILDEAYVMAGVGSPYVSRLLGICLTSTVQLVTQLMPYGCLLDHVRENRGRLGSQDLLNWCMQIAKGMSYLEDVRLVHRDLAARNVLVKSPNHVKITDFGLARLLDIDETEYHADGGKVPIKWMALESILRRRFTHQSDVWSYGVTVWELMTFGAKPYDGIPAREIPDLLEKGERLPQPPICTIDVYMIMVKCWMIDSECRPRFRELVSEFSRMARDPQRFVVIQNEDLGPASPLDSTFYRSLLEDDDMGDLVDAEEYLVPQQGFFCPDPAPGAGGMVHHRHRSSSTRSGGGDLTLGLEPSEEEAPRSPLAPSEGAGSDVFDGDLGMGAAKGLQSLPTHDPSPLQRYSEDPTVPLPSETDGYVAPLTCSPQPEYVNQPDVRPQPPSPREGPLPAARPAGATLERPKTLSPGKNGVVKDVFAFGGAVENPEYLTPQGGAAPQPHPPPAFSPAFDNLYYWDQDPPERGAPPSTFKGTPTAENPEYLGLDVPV

MCF7 = test: Cytotoxicity against human MCF7 cells assessed as reduction in cell viability after 72 hrs by MTT assay; format: functional, cell-based; details: MCF7, 72 h
A549 [3] = test: Cytotoxicity against human A549 cells assessed as reduction in cell viability after 72 hrs by MTT assay; format: functional, cell-based; details: A549, 72 h
[4] = molecular target: T1, Epidermal growth factor receptor; test: Inhibition of recombinant human C-terminal His/N-terminal GST-tagged EGFR (668 to 1210 residues) expressed in baculovirus infected Sf9 cells using biotin-labeled poly[Glu:Tyr] (4:1) as substrate after 30 mins by Kinase-Glo plus luminescence assay
Ehrlich [5] = test: Antitumor activity against mouse EAC cells implanted in albino mouse assessed as tumor growth inhibition at 5 mg/kg, po once daily for 8 consecutive days relative to control; format: functional; details: read-out: TGI
Ehrlich [6] = test: Antitumor activity against mouse EAC cells implanted in albino mouse assessed as tumor growth inhibition at 10 mg/kg, po once daily for 8 consecutive days relative to control; format: functional; details: read-out: TGI
Mus musculus [7] = test: Toxicity in albino mouse implanted with mouse EAC cells assessed as body weight change at 5 to 10 mg/kg, po once daily for 8 consecutive days; format: organism-based; details: in vivo
Mus musculus [8] = test: Toxicity in albino mouse implanted with mouse EAC cells assessed as change in organ index at 5 to 10 mg/kg, po once daily for 8 consecutive days; format: organism-based; details: in vivo
Ehrlich [9] = test: Antitumor activity against mouse EAC cells implanted in albino mouse assessed as cell death in thigh muscle tumor cells at 10 mg/kg, po once daily for 8 consecutive days by hematoxylin and eosin staining based light microscopic method; format: functional, organism-based
Ehrlich [10] = test: Antitumor activity against mouse EAC cells implanted in albino mouse assessed as increase in caspase-3 expression in tumor at 10 mg/kg, po once daily for 8 consecutive days by immunohistochemical analysis relative to control; format: functional
Ehrlich [11] = test: Antitumor activity against mouse EAC cells implanted in albino mouse assessed as increase in cytochrome-c expression in tumor at 10 mg/kg, po once daily for 8 consecutive days by immunohistochemical analysis; format: functional, organism-based
A549 [12] = test: Cell cycle arrest in human A549 cells assessed as accumulation at pre-G1 phase after 24 hrs by propidium iodide staining based flow cytometry relative to control; format: functional
A549 [13] = test: Cell cycle arrest in human A549 cells assessed as accumulation at G2/M phase after 24 hrs by propidium iodide staining based flow cytometry relative to control; format: functional
A549 [14] = test: Induction of apoptosis in human A549 cells assessed as live cells after 24 hrs by Annexin V-FITC/propidium iodide staining based flow cytometry (reference value: 97.93%); format: functional
A549 [15] = test: Induction of apoptosis in human A549 cells assessed as early apoptotic cells after 24 hrs by Annexin V-FITC/propidium iodide staining based flow cytometry (reference value: 0.26%); format: functional
A549 [16] = test: Induction of apoptosis in human A549 cells assessed as late apoptotic cells after 24 hrs by Annexin V-FITC/propidium iodide staining based flow cytometry (reference value: 0.11%); format: functional
A549 [17] = test: Induction of apoptosis in human A549 cells assessed as necrotic cells after 24 hrs by Annexin V-FITC/propidium iodide staining based flow cytometry (reference value: 0.17%); format: functional
Ehrlich [18] = test: Antitumor activity against mouse EAC cells implanted in albino mouse assessed as focal cell death in thigh muscle tumor cells at 5 to 10 mg/kg, po once daily for 8 consecutive days by hematoxylin and eosin staining based light microscopic method; format: functional, organism-based
Ehrlich [19] = test: Antitumor activity against mouse EAC cells implanted in albino mouse assessed as tumor growth inhibition administered orally once daily for 8 consecutive days; format: functional
A549 [20] = test: Induction of apoptosis in human A549 cells assessed as increase in early apoptotic cells after 24 hrs by Annexin V-FITC/propidium iodide staining based flow cytometry relative to control; format: functional
A549 [21] = test: Induction of apoptosis in human A549 cells assessed as increase in late apoptotic cells after 24 hrs by Annexin V-FITC/propidium iodide staining based flow cytometry relative to control; format: functional

inhibition [1] [%]	Compound	IC50 (MCF7) [µM]	IC50 (A549 [3]) [µM]	other results
6	CCOC(=O)c1c(C)oc2ncnc(Nc3ccc(OCc4ccc(C)cc4)cc3)c12	> 1000	> 1000	inhibition [2]: 20%
28	CCOC(=O)c1c(C)oc2ncnc(Nc3cccc(Cl)c3)c12	> 1000	> 1000	–
5	CCOC(=O)c1c(C)oc2ncnc(Nc3ccc(OCc4cccc(Cl)c4)cc3)c12	54	513	inhibition [2]: 7%
100	Cc1oc2ncnc(Nc3ccc(OCc4cccc(F)c4)c(Cl)c3)c2c1C(=O)O	46	21.4	IC50 [4]: 0.951 µM; inhibition [2]: 65%; inhibition in vivo at 5 mg/kg (Ehrlich [5]): 34.9%; inhibition in vivo at 10 mg/kg (Ehrlich [6]): 49%; Activity (Mus musculus [7]): Non-Toxic; Activity (Mus musculus [8]): Non-Toxic; Activity (Ehrlich [18]): Active; Activity (Ehrlich [10]): 51%; Activity (Ehrlich [11]): Active; fold change (FC) (A549 [12]): 17; fold change (FC) (A549 [13]): 3; Activity (A549 [14]): 88.77%; Activity (A549 [15]): 3.72%; Activity (A549 [16]): 4.84%; Activity (A549 [17]): 0.8%
10	CCOC(=O)c1c(C)oc2ncnc(Nc3ccc(OCc4ccccc4)cc3)c12	> 1000	> 1000	inhibition [2]: 3%
26	CCOC(=O)c1c(C)oc2ncnc(Nc3cccc(Br)c3)c12	> 1000	> 1000	–
18	CCOC(=O)c1c(C)oc2ncnc(Nc3ccc(OCc4cccc(F)c4)c(Cl)c3)c12	257	0.5	inhibition [2]: 6%; inhibition in vivo at 5 mg/kg (Ehrlich [5]): 35.1%; inhibition in vivo at 10 mg/kg (Ehrlich [6]): 67.1%; Activity (Ehrlich [19]): Dose-dependent effect; Activity (Mus musculus [7]): Non-Toxic; Activity (Mus musculus [8]): Non-Toxic; Activity (Ehrlich [9]): Active; fold change (FC) (Ehrlich [10]): >2; Activity (Ehrlich [11]): Active; fold change (FC) (A549 [12]): 32; fold change (FC) (A549 [13]): 5; fold change (FC) (A549 [20]): 25; fold change (FC) (A549 [21]): 79; Activity (A549 [14]): 81.19%; Activity (A549 [15]): 6.59%; Activity (A549 [16]): 8.69%; Activity (A549 [17]): 1.67%

The next lines start with the compound.

Compound	inhibition [1] [%]	IC50 (MCF7) [µM]	IC50 (A549 [3]) [µM]	other results
Cc1oc2ncnc(Nc3cccc(Br)c3)c2c1C(=O)O	94	68	43	IC50 [4]: 0.752 µM; inhibition in vivo at 5 mg/kg (Ehrlich [5]): 61.4%; inhibition in vivo at 10 mg/kg (Ehrlich [6]): 70.8%; Activity (Mus musculus [7]): Non-Toxic; Activity (Mus musculus [8]): Non-Toxic; Activity (Ehrlich [9]): Active; fold change (FC) (Ehrlich [10]): >2; Activity (Ehrlich [11]): Active; fold change (FC) (A549 [12]): 12; fold change (FC) (A549 [13]): 2; Activity (A549 [14]): 92.02%; Activity (A549 [15]): 2.78%; Activity (A549 [16]): 3.05%; Activity (A549 [17]): 0.66%
Cc1oc2ncnc(Nc3cccc(Br)c3)c2c1C(=O)NCCO	73	22	17.4	–
Cc1oc2ncnc(Nc3ccccc3)c2c1C(=O)O	30	246	191	–
Cc1oc2ncnc(Nc3cccc(Cl)c3)c2c1C(=O)O	85	57.5	95.5	IC50 [4]: 0.901 µM
C#Cc1cccc(Nc2ncnc3oc(C)c(C(=O)OCC)c23)c1	26	> 1000	> 1000	–
CCOC(=O)c1c(C)oc2ncnc(Nc3cccc(OC)c3)c12	6	> 1000	> 1000	–
Cc1cccc(Nc2ncnc3oc(C)c(CO)c23)c1	72	17	24	–
CCCNC(=O)c1c(C)oc2ncnc(Nc3cccc(C)c3)c12	20	> 1000	> 1000	–
CCOC(=O)c1c(C)oc2ncnc(Nc3cccc(C)c3)c12	52	> 1000	> 1000	–
Cc1oc2ncnc(Nc3cccc(Br)c3)c2c1CO	70	11	102	–
Cc1cccc(Nc2ncnc3oc(C)c(C(=O)O)c23)c1	58	57.5	100	–
CCOC(=O)c1c(C)oc2ncnc(Nc3ccccc3)c12	22	851	> 1000	–
COc1cc2ncnc(Nc3ccc(F)c(Cl)c3)c2cc1OCCCN1CCOCC1 [GEFITINIB]	–	–	–	Activity (Ehrlich [9]): Active; Activity (Ehrlich [10]): Active; Activity (Ehrlich [11]): Active; Activity (A549 [14]): 84.12%; Activity (A549 [15]): 5.84%; Activity (A549 [16]): 6.72%; Activity (A549 [17]): 1.67%
Cc1oc2ncnc(Nc3cccc(Cl)c3)c2c1C(=O)NCCO	85	> 1000	> 1000	IC50 [4]: 2.7 µM
Cc1oc2ncnc(Nc3cccc(Cl)c3)c2c1C(=O)NC(C)C	21	190	> 1000	–
